# Test results taken from paper PMC7078479, “Sulfamoyl Heteroarylcarboxylic Acids as Promising Metallo-β-Lactamase Inhibitors for Controlling Bacterial Carbapenem Resistance” (mBio, 2020).
# Like-named read-outs stand apart in the source and are kept apart here.
# What was measured:
# IMP-1 = molecular target: T1, IMP-1 (Serratia marcescens, UniProt P52699); assay: Inhibition of IPM hydrolysis by purified IMP-1, Ki by Lineweaver-Burk plots; assay type: biochemical
# T1 construct: made in house
# Procedure: (§1) MBL (10 nM) was mixed with the inhibitors and incubated for 5 min at 30°C. IPM was added to reach a concentration of 150 μM, and the velocity of IPM hydrolysis was monitored at 298 nm. The assay was performed at 30°C using 10 mM HEPES (pH 7.5) buffer containing 200 mM NaCl and 50 μg/ml bovine serum albumin (BSA) for IMP-1, NDM-1, VIM-2, and SMB-1. For SFH-1 and L1, another 10 mM HEPES (pH 7.5) buffer containing 200 mM NaCl, 20 μM ZnSO4, and 50 μg/ml BSA was used.
# (§2) Initial velocities (vo) were measured after varying the concentrations of IPM and inhibitors, and inverse velocities (1/vo) were plotted against inverse IPM concentrations […]. Lineweaver-Burk plots were constructed to obtain the inhibition constant (Ki) with the competitive inhibition model using the SigmaPlot 13 suite (Hulinks).
# VIM-2 = molecular target: T2, VIM-2 (Escherichia coli, UniProt Q5U7L7); assay: Inhibition of IPM hydrolysis by purified VIM-2, Ki by Lineweaver-Burk plots; assay type: biochemical; conditions: IPM as substrate, competitive model, mean of three replicates; read-out: Inhibition constant Ki VIM-2
# T2 construct: made in house
# Procedure: as §1, §2
# CMY-2 = molecular target: T3, CMY-2 (Klebsiella pneumoniae, UniProt Q48434); assay: Serine β-lactamase inhibition, nitrocefin hydrolysis by CMY-2; assay type: biochemical; conditions: nitrocefin 100 μM
# T3 construct: made in house; host or cells: E. coli BL21(DE3)
# Procedure: (§3) The serine–β-lactamases (1 nM) TLA-3, CMY-2, and OXA-48 were mixed with SFC in 100 mM phosphate buffer (pH 7.0) and incubated for 5 min at 30°C. Nitrocefin was added to reach a concentration of 100 μM, and the velocity of nitrocefin hydrolysis was monitored at 482 nm. Avibactam (MedKoo Bioscience, Morrisville, NC) was used as an inhibitor for serine–β-lactamases. The inhibitory effect of SFC against ACE was evaluated using ACE Kit-WST (Dojindo Laboratories, Kumamoto, Japan). The residual ACE activity was calculated as described in the manufacturer’s protocol as follows: [1 − (Acontrol − Asample)/(Acontrol − Abackground)] × 100. EDTA solution (Nippon Gene, Tokyo, Japan) was used as an ACE inhibitor.
# OXA-48 = molecular target: T4, OXA-48 (Klebsiella pneumoniae, UniProt Q6XEC0); assay: Serine β-lactamase inhibition, nitrocefin hydrolysis by OXA-48; assay type: biochemical; conditions: nitrocefin 100 μM
# T4 construct: made in house; host or cells: E. coli BL21(DE3)pLysS
# Procedure: as §3
# E. coli DH5α/pBC-IMP-1 = assay: Susceptibility and checkerboard testing, IMP-1-producing E. coli; assay type: cell-based, Escherichia coli; conditions: for MIC: Escherichia coli
# Procedure: (§4) MICs were determined via the microdilution method according to the CLSI guidelines ([38]). In brief, 5 × 10^4 bacterial cells were inoculated in 100 μl of cation-adjusted Mueller-Hinton broth (Becton, Dickinson and Company, Franklin Lakes, NJ) containing the β-lactams and appropriately diluted inhibitors. The final concentration of DMSO was maintained at 2% in the assays. The tested plates were then incubated at 35°C for 16 to 20 h. The MIC value was determined as the lowest concentration of tested β-lactams where no bacterial growth was visibly observed. The optical density at 600 nm (OD600) value was measured using a plate reader for drawing the heat maps. The FIC index value was calculated using the following equation: FIC index=MIC of β-lactam with inhibitor/MIC of β-lactam alone+MIC of inhibitor with β-lactam/MIC of inhibitor alone
# Unless noted otherwise, the FIC index was defined as the lowest value among all obtained values. The synergistic effect was defined as the effect observed when the FIC index value was ≤0.5.
# [1] = system: E. coli BL21(DE3)/pET-DIM-1; assay: Susceptibility testing, DIM-1-producing E. coli; assay type: cell-based; conditions: Escherichia coli
# Procedure: as §4
# [2] = read-out: MIC of MPM + inhibitor (8 μg/ml)
# [3] = read-out: MIC of MPM + inhibitor (32 μg/ml)
# T1 sequence (P52699 19-246 limits assumed): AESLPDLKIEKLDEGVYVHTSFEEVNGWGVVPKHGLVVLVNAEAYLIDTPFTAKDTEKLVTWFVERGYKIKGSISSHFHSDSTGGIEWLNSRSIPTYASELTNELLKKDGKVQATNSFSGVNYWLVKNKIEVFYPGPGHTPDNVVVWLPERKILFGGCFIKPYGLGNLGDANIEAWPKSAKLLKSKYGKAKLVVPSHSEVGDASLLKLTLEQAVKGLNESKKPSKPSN
# T3 sequence (Q48434 21-381, species assumed): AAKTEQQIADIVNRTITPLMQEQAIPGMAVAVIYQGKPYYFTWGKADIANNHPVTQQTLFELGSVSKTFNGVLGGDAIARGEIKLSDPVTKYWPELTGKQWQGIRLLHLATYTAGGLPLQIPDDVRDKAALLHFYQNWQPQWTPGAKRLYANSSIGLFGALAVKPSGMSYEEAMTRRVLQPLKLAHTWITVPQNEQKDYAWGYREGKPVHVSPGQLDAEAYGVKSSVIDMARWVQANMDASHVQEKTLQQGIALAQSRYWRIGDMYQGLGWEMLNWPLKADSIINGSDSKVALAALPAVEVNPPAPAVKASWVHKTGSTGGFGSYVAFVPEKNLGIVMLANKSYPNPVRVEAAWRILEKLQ
# T4 sequence (Q6XEC0 23-265, looked up, species assumed): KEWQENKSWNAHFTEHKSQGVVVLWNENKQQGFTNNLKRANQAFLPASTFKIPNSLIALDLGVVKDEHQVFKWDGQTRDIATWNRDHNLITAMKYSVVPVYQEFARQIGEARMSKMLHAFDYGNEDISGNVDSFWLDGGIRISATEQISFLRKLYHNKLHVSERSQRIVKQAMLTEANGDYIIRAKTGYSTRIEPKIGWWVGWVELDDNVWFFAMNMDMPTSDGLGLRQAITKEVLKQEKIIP
smiles,measurement,setting,value
"Cc1oc(C)c(S(N)(=O)=O)c1C(=O)O [SFC, 2,5-dimethyl-4-sulfamoylfuran-3-carboxylic acid]",Ki,IMP-1,220 nM
same,Ki,VIM-2,2810 nM
same,Inhibitory effect against CMY-2 (class C),CMY-2,nonexistent or insufficient
same,Inhibitory effect against OXA-48 (class D),OXA-48,nonexistent or insufficient
same,MIC meropenem + 2 μg/mL compound,E. coli DH5α/pBC-IMP-1; E. coli DH5α/pBC-IMP-1,0.063 µg/mL
same,Reduction in MPM MIC,"E. coli DH5α/pBC-IMP-1; E. coli DH5α/pBC-IMP-1, 2 μg/ml compound",16 fold
same,Reduction in MPM MIC,"E. coli DH5α/pBC-IMP-1; E. coli DH5α/pBC-IMP-1, 10 μg/ml compound",16 fold
same,MIC,E. coli DH5α/pBC-IMP-1; [2],0.031 µg/mL
same,MIC,E. coli DH5α/pBC-IMP-1; [3],0.031 µg/mL
same,FIC index,"E. coli DH5α/pBC-IMP-1; checkerboard with MPM, E. coli DH5α/pBC-IMP-1, lowest value",0.06
same,MIC,[1]; [2],2 µg/mL
same,MIC,[1]; [3],2 µg/mL
